Measured values as given in US12453750B2, “Fixed dose combination of cannabinoids and medical mushrooms for prevention and treatment of cancer, inflammatory or immune-mediated inflammatory diseases” (priority 2019, dated 2025).

Experiments:
EGL-1 cells = assay: Viability assay (XTT) of EGL-1 cells; assay type: cell-based, Human; conditions: 72 hours; for % viability at the potent concentrations: CBD 40-100 μM, THC 100-375 μM
Procedure: (§1) • a. PANC-1 cells (Human Pancreatic Cancer cells) (American Type Culture Collection, Rockville, MD, USA). • b. EGL-1 cells (Human extrahepatic cholangio carcinoma) Cell Growth:
Growth medium for EGL-1 cells: RPMI-1640 medium supplemented with 10% Fetal Bovine Serum (FBS), 2 mM L-Glutamine, and 1% Penicillin-Streptomycin solution (PS).
Assay medium for EGL-1: Assay medium contained only 1% FBS in DMEM low glucose (1 g/L)
(§2) • a. Cells were harvest at 80% confluence, counted and re-suspend to final concentration of 75×10^3/ml (PANC-1) or 50×103 (EGL-1) in growth medium. • b. Panc-1 cell suspension was seeded in 96-well microtiter plate at 7500 cells/100 μl/well and EGL-1 cell suspension was seeded in 96-well microtiter plate at 5000 cells/l100p/well. • c. Cells were incubated (37±10 C, 5% CO2) for 18-24 hrs. • d. Growth medium was removed; 80 μL assay medium and 20 μL Vehicle, Test Item, and Controls were added. […] The content of all wells was mixed by pipetting up and down three times. • f. Plates were incubated for 72±2 h (37±1° C., 5% CO2). • g. The medium on all plates was replaced with 100 μl culture medium. XTT Assay • a. XTT reaction solution was prepared. • b. 50 μl of the XTT reaction solution was added into each well. • c. Plates were incubated in a humidified atmosphere (e.g. 37° C., 5% CO2). • d. The plates were shaken gently to evenly distribute the dye in the wells. • e. The absorbance of the samples was measure against a background control as a blank with a spectrophotometer (ELISA reader) at a wavelength of 450 nm. • f. In order to measure reference absorbance (to measure non-specific readings), a wavelength of 620 nm was used to subtract from the 450 nm measurement. • g. The idle absorbance of the cells was 0.5-1.5 in all wells.

[1] = system: NO secretion from RAW cells; assay: Nitric Oxide (NO) test (Griess test) on supernatants of LPS-stimulated RAW cells; assay type: cell-based, Murine; conditions: for concentration effective in inhibiting NO secretion without affecting cells' viability / Cannabinoid NO: RAW cells 24 h; for % inhibition of NO secretion: vs vehicle
Procedure: • a. ⅔ of total final volume of warm water for injection (42° C.) was added to the dry mushroom powder. • b. The suspension was vortexed and centrifuged (4100 rpm, RT, 5 min). • c. The supernatant containing the water-soluble fraction was separated into a clean tube. • d. 5% of total final volume of EtOH was added to the pellet and vortexed to extract ethanol-soluble fractions. Water was added q.s. ad. final volume. • e. The suspension was vortexed and centrifuged. The resulting supernatant was combined and centrifuged again to remove debris, yielding a final concentration of 50 mg/ml. • f. The resulting solution was passed through a cell strainer (40-70 micron). • g. Two additional stocks were prepared in vehicle (5% EtOH in WFI): 10 mg/ml and 2 mg/ml. • h. All Test items/Vehicle were added to the cells at 4 μL into 96 μL medium, yielding final working concentrations of: 2 mg/ml, 0.4 mg/ml, and 0.08 (in 0.2% EtOH, 4% WFI). […] Cell Medium Formulations:
(§3) • a. Cells were harvested at 80% confluence, counted and re-suspend to final concentration of 1×10^6/ml in growth medium. • b. […] Cells were incubated (37±10 C, 5% CO2) for 18-24 hrs. • d. Growth medium was removed; […] medium and 4 μL Vehicle, Test Item, and Controls were added. • e. The content of all wells was mixed by pipetting up and down three times. • f. Plates were incubated for 2 h (37±1° C., 5% CO2). • g. LPS (10 μl, final concentration of 100 ng/ml LPS) was added to all wells. • h. The content of all wells was mixed by pipetting up and down three times. • i. Plates were incubated for 24±2 h (37±1° C., 5% CO2). • j. Medium was collected from the 96-microtiter plate: 50 μl for NO secretion assay and the rest was stored in −20° C. for cytokine secretion assay.
Cell Proliferation and Viability (XTT Assay) • a. XTT reaction solution was prepared. • b. 50 μl of the XTT reaction solution was added into each well. • c. Plates were incubated in a humidified atmosphere (e.g. 37° C., 5% CO2). • d. The plates were shaken gently to evenly distribute the dye in the wells. • e. The absorbance of the samples was measure against a background control as a blank with a spectrophotometer (ELISA reader) at a wavelength of 450 nm. • f. In order to measure reference absorbance (to measure non-specific readings), a wavelength of 620 nm was used to subtract from the 450 nm measurement. • g. […] Nitric Oxide (NO) Test (Griess Test) • a. The Sulfanilamide Solution and NED Solution were allowed to equilibrate to room temperature (15-30 minutes). • b. 1 ml of a 100 μM nitrite solution was prepared by diluting the provided 0.1M Nitrite Standard 1:1,000 in culture medium. • c. 2 columns (16 wells) were designate in the non-binding 96-well plate for the Nitrite Standard reference curve. 50 μl of assay medium were dispensed into the wells in rows B-H (FIG. 1). • d. 100 μl of the 100 μM nitrite solution was added to the remaining 2 wells in row A. serial twofold dilutions (50 μl/well) were performed immediately in duplicate down the plate to generate the Nitrite Standard reference curve (100, 50, 25, 12.5, 6.25, 3.13 and 1.56 μM), discarding 50 μl from the 1.56 μM set of wells • e. 50 μl of the Sulfanilamide Solution were dispensed to all experimental samples and wells containing the dilution series for the Nitrite Standard reference curve. • f. The plate was incubated 5-10 minutes at room temperature, protected from light. • g. 50 μl of the NED Solution was dispensed to all wells. • h. The plate was incubated 5-10 minutes at room temperature, protected from light. • i. Absorbance was measured within 30 minutes in a plate reader with a filter between 520 nm and 550 nm. • j.

[2] = system: IL-6 secretion from RAW cells; assay: IL-6 secretion, Multiplex analysis of medium of LPS-stimulated RAW cells; assay type: cell-based, Murine; conditions: CBD (15 μM)
Procedure: as §3
(§4) Cytokine Secretion • a. Reishi, Cordyceps M, Agaricus blazei, and Cordyceps Cs-4 were incubated with […] at 0.08-2 mg/ml for 24 hours. • b. Medium from cells was collected for Multiplex analysis (CCL3/MIP1α, IL-6, IL-1β, TNFα, IL-10 and IL-6) in duplicates. • c.
(§5) Cytokine Secretion • a. CBD (15 μM) and THC (20 μM) were incubated with […]. • b. Medium from cells was collected for Multiplex analysis (CCL3/MIP1α, IL-6, IL-1β, TNFα, IL-10 and IL-6) in duplicates. • c. […] IL-6 secretion: • i. […] TNFα secretion: • i.
(§6) Cytokine Secretion • a. […]

PANC-1 cells = assay: Viability assay (XTT) of PANC-1 cells; assay type: cell-based, Human; conditions: 72 hours; for % viability at the potent concentrations: CBD 40-100 μM, THC 100-375 μM, no dose response
Procedure: as §1
Growth medium for PANC-1/EGL-1 cells: Dulbecco's Modified Eagle Medium (DMEM) high glucose supplemented with 10% Fetal Bovine Serum (FBS), 2 mM L-Glutamine, and 1% Penicillin-Streptomycin solution (PS).
Assay medium for PANC-1: Assay medium contained only 1% FBS.
as §2

[3] = system: TNFα secretion from RAW cells; assay: TNFα secretion, Multiplex analysis of medium of LPS-stimulated RAW cells; assay type: cell-based, Murine; conditions: CBD (15 μM), THC (20 μM)
Procedure: as §3, §4, §5, §6

[4] = system: U373-MG (glioblastoma) cells; conditions: D9-THC at 100-300 nM; cited from earlier work
cancer cells = conditions: D9-THC (4-10 µM); cited from earlier work
[5] = system: NCl-H292 (lung cancer) cells; conditions: D9-THC at 100-300 nM; cited from earlier work
[6] = Mus musculus, read-out: % inhibition of NO secretion

SMILES | concentration at which potent (viability) (EGL-1 cells) [µM] | % viability at the potent concentrations (EGL-1 cells) | NO ([1]; CBD 15 μM alone) [µM] | inhibition at 15 µM [1, 6] [%] | concentration effective in inhibiting NO secretion without affecting cells' viability [1] [µM] | Cannabinoid NO ([1]; cannabinoid 15 μM) [µM] | % inhibition of NO secretion ([1]; cannabinoid 15 μM) [%] | Cannabinoid NO ([1]; cannabinoid 20 μM) [µM] | % inhibition of NO secretion ([1]; cannabinoid 20 μM) [%] | effect on IL-6 secretion (in words) [2] | concentration at which potent (viability) (PANC-1 cells) [µM] | % viability at the potent concentrations (PANC-1 cells) [%] | effect on TNFα secretion (in words) [3] | increase in the proliferation rate [4] [fold] | number of apoptotic cells (cancer cells) | inhibition at 20 µM [1, 6] [%] | NO ([1]; THC 20 μM alone) [µM] | increase in the proliferation rate [5] [fold]
C=C(C)[C@@H]1CCC(C)=C[C@H]1c1c(O)cc(CCCCC)cc1O [CBD, cannabidiol] | 40 to 100 | 15-30% | 6.67 | 40.2 | 15 to 20 | 11.8 | 38.6 | 5.07 | 73.6 | did not affect IL-6 secretion | 40 to 100 | 35 | did not affect TNFα secretion |  |  |  |  | 
CCCCCc1cc(O)c2c(c1)OC(C)(C)[C@@H]1CCC(C)=C[C@@H]21 [THC, Δ^9-tetrahydrocannabinol] | 100 to 375 | 15% |  |  | 20 |  |  | 8.77 | 54.4 |  | 100 to 375 | 35 | did not affect TNFα secretion | 2 | 30-80% | 66.7 | 3.72 | 1.2
